US20220280507A1, “USES OF 5-METHYLTETRAHYDROFOLATE AND ITS COMPOSITION” (Lianyungang Jinkang Hexin Pharmaceutical Co., Ltd., priority 2019, published 2022)
Where two headings read alike, the source gives them in different places.

How the values were obtained:
IL-6 = assay: LPS-induced inflammatory response in astrocytes, IL-6 release (ELISA); format: cell-based, Kunming mice; conditions: culture supernatant, LPS 1 μg·ml-1 + substance 10 μg·ml-1, 24 h, n=6
Text: Experiment 9 Inhibition of 5-Methyltetrahydrofolate and Curcumin on LPS-Induced Inflammatory Response in Astrocytes
The cerebral cortex of Kunming mice at 1˜2 d was taken out under aseptic conditions, washed 3 times with cold PBS after removing residual meninges and blood vessels, prepared into single cell suspension by blowing, centrifuged, the supernatant was discarded, and the precipitant was resuspended in AST basic medium (high-sugar DMEM containing 10% FBS). The suspension was inoculated into a culture flask coated with poly-L-lysine (0.1 mg/ml), and cultured in a CO2 incubator. After 24 h, tissue debris and non-adherent cells were removed by replacing the medium. Afterwards, the medium was replaced every 3 days until the cells reached 80% confluence, then the flask was placed on a constant temperature rotary shaker, where the suspension was centrifuged at 180 r/min, 37° C. for 18 h to remove oligodendrocytes and microglia from the upper layer. Then trypsin digestion was used for subculture. […]
LPS (1 μg·ml-1), LPS (1 μg·ml-1)+curcumin (10 μg·ml-1), LPS (1 μg·ml-1)+5-MTHF-Ca (10 μg·ml-1); experimental group: LPS (1 μg·ml-1)+curcumin (5 μg·ml-1)+5-MTHF-Ca (5 μg·ml-1). After 24 h, the culture supernatant was collected, and the cytokines IL-6, IL-1β and TNF-α were detected by ELISA.

[1] = system: methanol metabolism in rats; conditions: n=5
Procedure: Experiment 10 Effects of Drinking and 5-Methyltetrahydrofolate on the Formate in the Urine of SD Rats
In order to study the effects of 5-methyltetrahydrofolate and ethanol on methanol metabolism in rats, SPF-grade female SD rats, fasted overnight, were divided into 4 groups: (1) ethanol group, with intragastric administration of ethanol at a dose of 1 g/kg respectively at 1, 2, 3 h, n=7; (2) control group, with intragastric administration of glucose at a dose of 1.6 g/kg (equivalent to alcohol calories) respectively at 1, 2, and 3 h, n=5; (3) 5-methyltetrahydrofolate group, with intragastric administration of 5-methyltetrahydrofolate calcium at a dose of 4 mg/kg at 0 h, followed by glucose at a dose of 1.6 g/kg (equivalent to alcohol calories) respectively at 1, 2, and 3 h, n=5; (4) 5-methyltetrahydrofolate alcohol group, with intragastric administration of 5-methyltetrahydrofolate calcium at a dose of 4 mg/kg at 0 h, followed by ethanol at a dose of 1 g/kg respectively at 1, 2, and 3 h, n=5.
Food grade alcohol was used, with a methanol content of less than 5 mg/L. Urine was collected, from 0 to 24 h, into a test tube containing 0.1 mL of thioethanol and stored at −70° C. The urine samples were divided into three parts, of which gas chromatographic method, fluorescence method and HPLC-DNPH derivative method were used to detect ethanol and methanol contents (see Table 16), formate content, and formaldehyde content (see Table 17) in urine, respectively.
The method for detecting formate is as follows: 0.1 mL of urine was mixed with 0.1 mL of 10 mmol/L NAD+, 0.1 mL of potassium phosphate buffer (pH 7.4, 20 mmol/L) and 50 μL of formate dehydrogenase, then 0.1 mL of diaphorase (4 U/mL), 50 μL of resazurin solution (0.2 mg/ml) and 0.5 ml of phosphate buffer (pH 6.00, 200 mmol/L) were added. The mixture was incubated at 37° C. for 5 min, then immersed in boiling water for 3 min, and then cooled to room temperature. Fluorescence spectrophotometry was used to determine the content of formate in the mixture, with an emission wavelength of 590 nm and an absorption wavelength of 565 nm.
The method for detecting formaldehyde is as follows: 0.1 ml of urine was taken and filtered through filtering membrane, 0.05 ml of 2,4-dinitrophenylhydrazine (DNPH, 0.1 g/L) and 0.25 ml of trifluoroacetic acid were added to it. The sample was vortexed for 30 s, centrifuged, […]. HPLC was used for analysis, with a detection wavelength of 355 nm, column temperature of 35° C., and mobile phase of 65% acetonitrile.

[2] = 5-methyltetrahydrofolate calcium 4 mg/kg ig at 0 h + ethanol 1 g/kg at 1, 2, 3 h
[3] = 5-methyltetrahydrofolate calcium 4 mg/kg ig at 0 h + glucose 1.6 g/kg at 1, 2, 3 h

5-methyltetrahydrofolate calcium showed an IL-6 (IL-6) of 993.24 ± 52.05 pg/mL.
With CN1c2c([nH]c(N)nc2=O)NCC1CNc1ccc(C(=O)N[C@@H](CCC(=O)O)C(=O)O)cc1 (stereo partly drawn) [5-methyltetrahydrofolate, N-[4-[[(2-amino-1,4,5,6,7,8-hexahydro-4-oxo-5-methyl-(6S), -(6R), and (6R,S)-pteridyl)methyl)amino)toluoyl-glutamic acid] the “Ethanol content in urine, 3 h” value [1, 2] was 11.6 ± 1.3 mg/L, the “Formaldehyde content in urine, 3 h” value [1, 2] was 0.8 ± 0.4 mg/L and the “Formate content in urine, 3 h” value [1, 2] was 241 ± 42 mg/L. The “Methanol content in urine, 3 h” value [1, 2] was 1.6 ± 0.3 mg/L, the “Ethanol content in urine, 4 h” value [1, 2] was 25.2 ± 2.2 mg/L and the “Formaldehyde content in urine, 4 h” value [1, 2] was 1.7 ± 0.6 mg/L. For the same molecule, the “Formate content in urine, 4 h” value [1, 2] was 255 ± 30 mg/L, the “Methanol content in urine, 4 h” value [1, 2] was 2.5 ± 0.4 mg/L and the “Ethanol content in urine, 8 h” value [1, 2] was 24.1 ± 2.3 mg/L. For the same molecule, the “Formaldehyde content in urine, 8 h” value [1, 2] was 2.9 ± 1.2 mg/L, the “Formate content in urine, 8 h” value [1, 2] was 345 ± 43 mg/L and the “Methanol content in urine, 8 h” value [1, 2] was 6.4 ± 1.0 mg/L. The “Ethanol content in urine, 12 h” value [1, 2] was 11.8 ± 2.0 mg/L, the “Formaldehyde content in urine, 12 h” value [1, 2] was 3.1 ± 1.0 mg/L and the “Formate content in urine, 12 h” value [1, 2] was 351 ± 45 mg/L. The “Methanol content in urine, 12 h” value [1, 2] was 4.4 ± 0.9 mg/L, the “Ethanol content in urine, 16 h” value [1, 2] was 4.3 ± 0.8 mg/L and the “Formaldehyde content in urine, 16 h” value [1, 2] was 1.9 ± 0.9 mg/L. For the same molecule, the “Formate content in urine, 16 h” value [1, 2] was 247 ± 48 mg/L, the “Methanol content in urine, 16 h” value [1, 2] was 3.7 ± 0.9 mg/L and the “Ethanol content in urine, 24 h” value [1, 2] was 1.7 ± 0.7 mg/L. For the same molecule, the “Formaldehyde content in urine, 24 h” value [1, 2] was 1.0 ± 0.5 mg/L, the “Formate content in urine, 24 h” value [1, 2] was 211 ± 39 mg/L and the “Methanol content in urine, 24 h” value [1, 2] was 1.9 ± 0.7 mg/L. The “Ethanol content in urine, 3 h” value [1, 3] was 0.6 ± 0.4 mg/L, the “Formaldehyde content in urine, 3 h” value [1, 3] was 0.8 ± 0.4 mg/L and the “Formate content in urine, 3 h” value [1, 3] was 215 ± 33 mg/L. The “Methanol content in urine, 3 h” value [1, 3] was 1.0 ± 0.3 mg/L, the “Ethanol content in urine, 4 h” value [1, 3] was 0.8 ± 0.5 mg/L and the “Formaldehyde content in urine, 4 h” value [1, 3] was 0.8 ± 0.5 mg/L. For the same molecule, the “Formate content in urine, 4 h” value [1, 3] was 237 ± 42 mg/L, the “Methanol content in urine, 4 h” value [1, 3] was 1.1 ± 0.4 mg/L and the “Ethanol content in urine, 8 h” value [1, 3] was 1.5 ± 0.4 mg/L. The “Formaldehyde content in urine, 8 h” value [1, 3] was 0.7 ± 0.4 mg/L, the “Formate content in urine, 8 h” value [1, 3] was 198 ± 36 mg/L and the “Methanol content in urine, 8 h” value [1, 3] was 1.2 ± 0.4 mg/L. The “Ethanol content in urine, 12 h” value [1, 3] was 1.5 ± 0.3 mg/L, the “Formaldehyde content in urine, 12 h” value [1, 3] was 0.8 ± 0.3 mg/L and the “Formate content in urine, 12 h” value [1, 3] was 187 ± 32 mg/L. The “Methanol content in urine, 12 h” value [1, 3] was 1.1 ± 0.4 mg/L, the “Ethanol content in urine, 16 h” value [1, 3] was 1.7 ± 0.5 mg/L and the “Formaldehyde content in urine, 16 h” value [1, 3] was 0.8 ± 0.5 mg/L. The “Formate content in urine, 16 h” value [1, 3] was 190 ± 41 mg/L, the “Methanol content in urine, 16 h” value [1, 3] was 1.3 ± 0.5 mg/L and the “Ethanol content in urine, 24 h” value [1, 3] was 1.6 ± 0.4 mg/L. The “Formaldehyde content in urine, 24 h” value [1, 3] was 0.8 ± 0.4 mg/L, the “Formate content in urine, 24 h” value [1, 3] was 188 ± 36 mg/L and the “Methanol content in urine, 24 h” value [1, 3] was 1.1 ± 0.3 mg/L.
